Measured values reported in patent EP0245209A1, “Milbemycin derivatives, their preparation and their use as pesticides” (CIBA-GEIGY AG, priority 1986, dated 1987).

What was measured:
Type in all cases: in vivo
[1] = system: Ll-Larven von Lucilia cuprina; test: Action against L1 larvae of Lucilia cuprina (as B.2); settings: niedrigere Konzentrationen (below 100 ppm)
Procedure: (§1) 1 ml einer wässrigen Suspension der zu prüfenden Aktivsubstanz werden so mit 3 ml eines speziellen Larvenzuchtmediums bei ca. 50°C vermischt, dass ein Homogenisat von wahlweise 250 ppm oder 100 ppm Wirkstoffgehalt entsteht. In jede Reagenzglas-Probe werden ca. 30 Lucilia-Larven (L1) eingesetzt. Nach 4 Tagen wird die Mortalitätsrate bestimmt. Die Verbindungen aus den Herstellungsbeispielen zeigen bei 250 ppm eine Wirkung von 100 %, wobei Verbindungen aus den Herstellungsbeispielen diese Wirkung auch noch bei der reduzierten Wirkstoffkonzentration von 100 ppm erzielen, wie beispielsweise die Verbindungen Nr. 1.10, 1.18, 1.26, 1.34, 1.39, 1.43, 1.46, 1.54, 1.58, 1.62, 1.82, 1.90 und 1.114.
Beispiel B.3: Wirkung gegen Ll-Larven von Lucilia cuprina
Der Test wird wie unter B.2 beschrieben durchgeführt, jedoch mit Larven von Lucilia cuprina. […] Bei manchen Verbindungen wird dieser Effekt bereits mit niedrigeren Konzentrationen erreicht, beispielsweise mit den Verbindungen Nr. 1.34, 1.90 und 1.114.

[2] = system: LI-Larven von Lucilia sericata; test: Action against L1 larvae of Lucilia sericata (larval culture medium, mortality); settings: reduced concentration of 100 ppm, after 4 days; for mortality at 100 ppm: Lucilia sericata, 96 h, read-out: Wirkung (Mortalitätsrate)
Procedure: Beispiel B.2: Wirkung gegen LI-Larven von Lucilia sericata
as §1

Aedes aegypti = test: Larvicidal action against Aedes aegypti (larvae in water); settings: niedrigere Konzentrationen (below 3 ppm)
Procedure: Beispiel B.10: Larvizidwirkung gegen Aedes aegypti
Auf die Oberfläche von 150 ml Wasser, das sich in einem Behälter befindet, wird soviel einer 0,1 %igen acetonischen Lösung des Wirkstoffes pipettiert, dass Konzentrationen von wahlweise 12,5 ppm, 3,3 ppm und 1,6 ppm erhalten werden. Nach Verdunsten des Acetons wird der Behälter mit ca. 30-40 3 Tage alten Aedes-Larven beschickt. Nach 1, 2 und 5 Tagen wird die Mortalität geprüft.

[3] = system: OP-sensible Tetranychus urticae; test: Action against plant-damaging acarids, OP-sensitive Tetranychus urticae (sprayed bean plants); settings: niedrigere Konzentrationen (below 1,6 ppm); after seven days
Procedure: Beispiel B.7: Wirkung gegen pflanzenschädigende Akariden OP-sensible Tetranychus urticae
Die Primärblätter von Bohnenpflanzen (Phaseolus vulgaris) werden 16 Stunden vor dem Versuch mit einem durch T. urticae infestierten, aus einer Massenzucht stammenden Blattstück belegt. […] Die Temperatur in der Gewächshauskabine beträgt ca. 25°C.
Nach sieben Tagen wird unter dem Binokular auf Prozentsatz mobiler Stadien (Adulte und Nymphen) und auf vorhandene Eier ausgewertet.

Spodoptera littoralis = test: Insecticidal stomach-poison action on Spodoptera littoralis (sprayed cotton plants); settings: niedrigere Konzentrationen (below 12,5 ppm); L1 larvae
Procedure: Beispiel B.6: Insektizide Frassgift-Wirkung bei Spodoptera littoralis
Eingetopfte Baumwollpflanzen im 5-Blatt-Stadium werden mit einer acetonisch/wässrigen Versuchslösung besprüht, die 3, 12,5 oder 50 ppm der zu prüfenden Verbindung enthält.
Nach dem Antrocknen des Belags werden die Pflanzen mit ca. 30 Larven (LI-Stadium) von Spodoptera littoralis besetzt. Pro Versuchsverbindung und pro Test-Spezies verwendet man zwei Pflanzen. Der Versuch wird bei ca. 24°C und 60 % relativer Luftfeuchtigkeit durchgeführt. Auswertungen und Zwischenauswertungen auf moribunde Tiere, Wachstum und Larven und Frassschäden erfolgen nach 24 Stunden, 48 Stunden und 72 Stunden.

Meloidogyne incognita = test: Soil nematicidal action against Meloidogyne incognita (tomato plants, root-knot index); settings: after 4 weeks
Procedure: Beispiel B.4: Bodennematizide Wirkung gegen Meloidogyne incognita
(§2) Eier von Meloidogyne incognita werden in Sand eingemischt. Dieses Gemisch wird dann in 200 ml fassende Tontöpfe eingebracht (5000 Eier pro Topf). Am gleichen Tag wird pro Topf eine 3 Wochen alte Tomatenpflanze gepflanzt und der aus 50 %-igem Emulsionskonzentrat formulierte Wirkstoff mittels Druckapplikation in die Töpfe hineingegeben. Die eingetopften Pflanzen werden nun bei einer Temperatur von 26!1°C und einer relativen Luftfeuchtigkeit von 60 % in einem Gewächshaus aufgestellt. Nach Ablauf von 4 Wochen erfolgt eine Evaluierung durch Untersuchung der Pflanzen auf Wurzelgallbildung nach dem sogenannten Wurzelgall-Index ("Knot Index").

Caenorhabditis elegans = test: Soil nematicidal action against Caenorhabditis elegans (as B.4); settings: test as B.4
Procedure: as §2
Beispiel B.5: Bodennematizide Wirkung gegen Caenorhabditis elegans
Der Test wird wie unter B.4 beschrieben durchgeführt, jedoch mit Caenorhabditis elegans. Die Verbindungn der Herstellungsbeispiele zeigen in diesem Test eine gute Wirksamkeit. Um eine fast vollständige Hemmung der Reproduktion zu erreichen, genügen bei manchen Verbindungen Konzentrationen von 1 ppm und weniger, wie beispielsweise bei den Verbindungen Nr. 1.39, 1.70 und 1.90 und vor allem Nr. 1.2, 1.3, 1.26, 1.43 und 1.66.

Aphis craccivora = test: Contact action on Aphis craccivora (sprayed pea seedlings); settings: niedrigere Konzentrationen (below 25 ppm); after 3 days
Excerpt: Beispiel B.9: Kontaktwirkung auf Aphis craccivora
Erbsenkeimlinge, die mit sämtlichen Entwicklungsstadien der Laus infiziert sind, werden mit einer aus einem Emulsionskonzentrat hergestellten Wirkstofflösung besprüht, die wahlweise 50 ppm, 25 ppm oder 12,5 ppm Wirkstoff enthält. Nach 3 Tagen wird auf mehr als 80 % tote bzw. abgefallene Blattläuse ausgewertet. Nur bei dieser Wirkungshöhe wird ein Präparat als wirksam eingestuft.

Dermanyssus gallinae = test: Miticidal action against Dermanyssus gallinae (contact test in glass vessel, mortality); settings: geringere Wirkstoffkonzentrationen (below 100 ppm); observed three days; 4320 min
Procedure: Beispiel B.1: Milbizide Wirkung gegen Dermanyssus gallinae
2 bis 3 ml einer Testlösung (250, 100 und 10 ppm Aktivsubstanz) werden in einen nach oben offenen Glasbehälter gegeben und ca. 200 Milben in unterschiedlichen Entwicklungsstadien in diesen Behälter eingesetzt. Der Glasbehälter wird mit einem Wattebausch verschlossen und 10 Minuten gleichmässig, bis zur vollständigen [benetzung der Milben geschüttelt. Danach wird der Behälter umgekehrt hingestellt, bis die überschüssige Testlösung von der Watte aufgesogen ist. Der Behälter wird erneut gekehrt und die behandelten Zecken zur Evaluierung der Wirksamkeit der Testsubstanzen drei Tage unter Laborbedingungen beobachtet, wobei die Mortalität als Massstab für Wirksamkeit herangezogen wird.

Row | Molecule | Abtötung sämtlicher Larven (Aedes aegypti) | Abtötung [3] | Abtötung (Spodoptera littoralis) | Abtötung (Aphis craccivora) | Wirkung (Mortalität) (Dermanyssus gallinae) | mortality at 100 ppm [2] | other results
1 | 13ß-(9-Fluorenyl-methoxy)-carbonyloxy-milbemycin A4 [1.114] | vollständige Abtötung | – | – | – | – | – | Vernichtung des Schädlings [1]: vollständige Vernichtung; Wirkung (Mortalitätsrate) [2]: 100%
2 | 13β-(Cyclohexyloxycarbonyloxy)-milbemycin A4 [1.82] | vollständige Abtötung | vollständige Abtötung | vollständige Abtötung | – | – | – | Wirkung (Mortalitätsrate) [2]: 100%
3 | 13β-([-]-Menthyloxy)-carbonyloxy-milbemycin A4 [1.90] | vollständige Abtötung | – | – | – | – | – | Konzentration für fast vollständige Hemmung der Reproduktion (Meloidogyne incognita): ≤ 1 ppm; Vernichtung des Schädlings [1]: vollständige Vernichtung; Wirkung (Mortalitätsrate) [2]: 100%; Konzentration für fast vollständige Hemmung der Reproduktion (Caenorhabditis elegans): ≤ 1 ppm
4 | CC[C@H]1O[C@]2(CC[C@@H]1C)C[C@@H]1C[C@@H](C/C=C(\C)[C@H](OC(=O)OC)[C@@H](C)/C=C/C=C3\CO[C@@H]4[C@H](O)C(C)=C[C@@H](C(=O)O1)[C@]34O)O2 [1.2, 13ß-(Methoxycarbonyloxy)-milbemycin A4] | – | – | – | 100% | 100% | – | –
5 | COC(=O)O[C@H]1/C(C)=C/C[C@@H]2C[C@@H](C[C@]3(CC[C@H](C)[C@@H](C(C)C)O3)O2)OC(=O)[C@@H]2C=C(C)[C@@H](O)[C@H]3OC/C(=C\C=C\[C@@H]1C)[C@]32O [1.3, 13ß-(Methoxycarbonyloxy)-milbemycin D] | – | vollständige Abtötung | vollständige Abtötung | 100% | 100% | – | –
6 | CC[C@H]1O[C@]2(CC[C@@H]1C)C[C@@H]1C[C@@H](C/C=C(\C)[C@H](OC(=O)OC(C)C)[C@@H](C)/C=C/C=C3\CO[C@@H]4[C@H](O)C(C)=C[C@@H](C(=O)O1)[C@]34O)O2 [1.10, 13ß-Isopropyloxycarbonyloxy-milbemycin A4] | vollständige Abtötung | vollständige Abtötung | vollständige Abtötung | 100% | 100% | 100% | –
7 | CC[C@H]1O[C@]2(CC[C@@H]1C)C[C@@H]1C[C@@H](C/C=C(\C)[C@H](OC(=O)OCCBr)[C@@H](C)/C=C/C=C3\CO[C@@H]4[C@H](O)C(C)=C[C@@H](C(=O)O1)[C@]34O)O2 [1.18, 13ß-(2-Bromäthoxy)-carbonyloxy-milbemycin A4] | – | – | – | – | 100% | 100% | –
8 | CC[C@H]1O[C@]2(CC[C@@H]1C)C[C@@H]1C[C@@H](C/C=C(\C)[C@H](OC(=O)OCC(Cl)(Cl)Cl)[C@@H](C)/C=C/C=C3\CO[C@@H]4[C@H](O)C(C)=C[C@@H](C(=O)O1)[C@]34O)O2 [1.26, 13ß-[(2,2,2-Trichlorethoxy)-carbonyloxy]-milbemycin A4] | vollständige Abtötung | – | vollständige Abtötung | – | – | 100% | –
9 | CC[C@H]1O[C@]2(CC[C@@H]1C)C[C@@H]1C[C@@H](C/C=C(\C)[C@H](OC(=O)OC(C)(C)C(Cl)(Cl)Cl)[C@@H](C)/C=C/C=C3\CO[C@@H]4[C@H](O)C(C)=C[C@@H](C(=O)O1)[C@]34O)O2 [1.34, 13ß-[(1,1-Dimethyl-2,2,2-trichlorethoxy)-carbonyloxy]-milbemycin A4] | vollständige Abtötung | vollständige Abtötung | vollständige Abtötung | 100% | – | 100% | Vernichtung des Schädlings [1]: vollständige Vernichtung
10 | C=COC(=O)O[C@H]1/C(C)=C/C[C@@H]2C[C@@H](C[C@]3(CC[C@H](C)[C@@H](C(C)C)O3)O2)OC(=O)[C@@H]2C=C(C)[C@@H](O)[C@H]3OC/C(=C\C=C\[C@@H]1C)[C@]32O [1.39, 13ß-(Vinyloxycarbonyloxy)-milbemycin D] | – | – | – | 100% | 100% | 100% | –
11 | C=CCOC(=O)O[C@H]1/C(C)=C/C[C@@H]2C[C@@H](C[C@]3(CC[C@H](C)[C@@H](C(C)C)O3)O2)OC(=O)[C@@H]2C=C(C)[C@@H](O)[C@H]3OC/C(=C\C=C\[C@@H]1C)[C@]32O [1.43, 13β-(Allyloxycarbonyloxy)-milbemycin D] | – | – | – | 100% | 100% | 100% | –
12 | CC[C@H]1O[C@]2(CC[C@@H]1C)C[C@@H]1C[C@@H](C/C=C(\C)[C@H](OC(=O)OCc3ccccc3)[C@@H](C)/C=C/C=C3\CO[C@@H]4[C@H](O)C(C)=C[C@@H](C(=O)O1)[C@]34O)O2 [1.46, 13β-Benzyloxycarbonyloxy-milbemycin A4] | – | – | – | – | 100% | 100% | –
13 | CC[C@H]1O[C@]2(CC[C@@H]1C)C[C@@H]1C[C@@H](C/C=C(\C)[C@H](OC(=O)Oc3ccccc3)[C@@H](C)/C=C/C=C3\CO[C@@H]4[C@H](O)C(C)=C[C@@H](C(=O)O1)[C@]34O)O2 [1.54, 13ß-Phenoxycarbonyloxy-milbemycin A4] | vollständige Abtötung | – | vollständige Abtötung | 100% | – | 100% | –
14 | CC[C@H]1O[C@]2(CC[C@@H]1C)C[C@@H]1C[C@@H](C/C=C(\C)[C@H](OC(=O)Oc3ccc([N+](=O)[O-])cc3)[C@@H](C)/C=C/C=C3\CO[C@@H]4[C@H](O)C(C)=C[C@@H](C(=O)O1)[C@]34O)O2 [1.58, 13ß-(4-Nitrophenoxy)-carbonyloxy-milbemycin A4] | vollständige Abtötung | – | – | – | – | 100% | –
15 | CC[C@H]1O[C@]2(CC[C@@H]1C)C[C@@H]1C[C@@H](C/C=C(\C)[C@H](OC(=O)Oc3ccc(C(=O)OC)cc3)[C@@H](C)/C=C/C=C3\CO[C@@H]4[C@H](O)C(C)=C[C@@H](C(=O)O1)[C@]34O)O2 [1.62, 13ß-(4-Methoxycarbonylphenoxy)-carbonyloxy-milbemycin A4] | vollständige Abtötung | – | – | – | – | 100% | –
16 | CC[C@H]1O[C@]2(CC[C@@H]1C)C[C@@H]1C[C@@H](C/C=C(\C)[C@H](OC(=O)OCC(Cl)(Cl)C(F)(F)F)[C@@H](C)/C=C/C=C3\CO[C@@H]4[C@H](O)C(C)=C[C@@H](C(=O)O1)[C@]34O)O2 [1.98, 13ß-(3,3,3-Trifluor-2,2-dichlor-propyloxy)-carbonyloxy-milbemycin A4] | vollständige Abtötung | vollständige Abtötung | vollständige Abtötung | – | – | – | –
